The values that follow come from the NIST ThermoML archive (doi:10.1016/j.fluid.2004.10.025).

For this series the following is noted: Liquid.

As usually defined, the vapor or sublimation pressure is the pressure of vapour in equilibrium with the condensed phase.

Numbers after ± are expanded uncertainties.

For `ClC(Cl)C(Cl)Cl` [1,1,2,2-tetrachloroethane], the “vapor or sublimation pressure” value runs as follows: (283.15 K) 0.263 ± 0.021 kPa; (288.15 K) 0.373 ± 0.021 kPa; (293.15 K) 0.521 ± 0.022 kPa; (298.15 K) 0.711 ± 0.023 kPa; (303.15 K) 0.98 ± 0.025 kPa; (308.15 K) 1.289 ± 0.028 kPa. The “vapor or sublimation pressure” value is 1.701 ± 0.028 kPa (313.15 K), 2.236 ± 0.029 kPa (318.15 K) and 2.86 ± 0.03 kPa (323.15 K).
Regarding `ClC(Cl)=C(Cl)Cl` [tetrachloroethene], the “vapor or sublimation pressure” value (283.15 K) is reported as 1.023 ± 0.026 kPa; the “vapor or sublimation pressure” value (288.15 K) turned out to be 1.4 ± 0.027 kPa; the “vapor or sublimation pressure” value (293.15 K) was found to be 1.861 ± 0.028 kPa; the “vapor or sublimation pressure” value (298.15 K) was determined as 2.462 ± 0.029 kPa; the “vapor or sublimation pressure” value (303.15 K) stood at 3.205 ± 0.031 kPa; the “vapor or sublimation pressure” value (308.15 K) is on record as 4.117 ± 0.033 kPa. Also, the “vapor or sublimation pressure” value runs as follows: (313.15 K) 5.253 ± 0.036 kPa; (318.15 K) 6.621 ± 0.039 kPa; (323.15 K) 8.286 ± 0.043 kPa.
Turning to `ClC(Cl)(Cl)Cl` [tetrachloromethane], the “vapor or sublimation pressure” value was found to be 7.514 ± 0.042 kPa (283.15 K); 9.601 ± 0.047 kPa (288.15 K); 12.14 ± 0.054 kPa (293.15 K); 15.22 ± 0.064 kPa (298.15 K); 18.98 ± 0.076 kPa (303.15 K); 23.36 ± 0.09 kPa (308.15 K). For the same compound, the “vapor or sublimation pressure” value by setting is: (313.15 K) 28.53 ± 0.11 kPa; (318.15 K) 34.59 ± 0.13 kPa; (323.15 K) 41.68 ± 0.15 kPa.
